{"source": "paper PMC11876601", "about": "(Molecular Systems Biology, 2025)", "key": {"[1]": {"tested_on": "AsPC-1 cells", "assay": "Cell proliferation assay, chemodrug + ATR inhibitor (Incucyte confluence, 72 h);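 on all read-outs here: underlying read-out for every value is AsPC-1 confluence after 72 h incubation at 37 °C and 5% CO2, divided by that well's starting confluence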", "conditions": "for AsPC-1 viability mean (ratio) / Raw data (confluence at 72 h/confluence at 0 h) / AsPC-1 viability (ratio): Gartisertib experiment; for EC50: Homo sapiens; for Ratio: Response / Response vehicle (mean)", "procedure": "(§1) Cells were seeded at 5000 cells/well into 96-well flat bottom plates (Eppendorf) and allowed to attach overnight. […] Cells were incubated for 72 h at 37 °C and 5% CO2. Cell confluence readouts at 72 h were either normalized to their initial confluence using the Incucyte software (AsPC-1) or used without prior normalization (all others). […] Each experiment was performed in triplicates, the data was plotted as mean ± standard deviation (s.d.)."}, "[2]": {"tested_on": "PANC-1 cells", "assay": "Cell proliferation assay, GEM + ATR inhibitor (Incucyte confluence, 72 h);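 on EC50: in combination experiments GEM is titrated while ATRi is held at a fixed sub-EC50 dose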;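 on all read-outs here: PANC-1 confluence at 72 h taken as raw values, not normalized to starting confluence, with each experiment run in triplicate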", "conditions": "for EC50: Homo sapiens, mean of replicates; for Curve bottom / Curve top: PANC-1, plateau of fitted curve, ratio drug/vehicle confluence", "procedure": "as §1"}, "[3]": {"conditions": "replicate R2, titrated drug dose 1000 nM"}, "[4]": {"conditions": "replicate R2, titrated drug dose 3000 nM"}, "[5]": {"conditions": "replicate R2, titrated drug dose 10000 nM"}, "[6]": {"conditions": "replicate R3, titrated drug dose 3 nM"}, "[7]": {"conditions": "replicate R3, titrated drug dose 10 nM"}, "[8]": {"conditions": "replicate R3, titrated drug dose 30 nM"}, "[9]": {"conditions": "replicate R3, titrated drug dose 100 nM"}, "[10]": {"conditions": "replicate R3, titrated drug dose 300 nM"}, "[11]": {"conditions": "replicate R3, titrated drug dose 1000 nM"}, "[12]": {"conditions": "replicate R3, titrated drug dose 3000 nM"}, "[13]": {"conditions": "replicate R3, titrated drug dose 10000 nM"}}, "note": "Values joined by “and” are separate entries in the source; they are usually repeats but may differ in a detail not shown here. Equal values may be shown once. Read-outs that look alike come from different tables or passages of the source.", "data": [{"molecule": "Nc1nn2cc(F)cnc2c1C(=O)Nc1cncc(F)c1N1CCC(C(=O)N2CCN(C3COC3)CC2)CC1", "note": "[Gartisertib]", "values": [{"measurement": "AsPC-1 viability mean (ratio)", "setting": "[1]; [3]", "value": 0.53, "unit": "ratio"}, {"measurement": "Raw data (confluence at 72 h/confluence at 0 h)", "setting": "[1]; [3]", "value": 1.27}, {"measurement": "AsPC-1 viability (ratio)", "setting": "[1]; [4]", "value": 0.28, "unit": "ratio"}, {"measurement": "AsPC-1 viability mean (ratio)", "setting": "[1]; [4]", "value": 0.92, "unit": "ratio"}, {"measurement": "Raw data (confluence at 72 h/confluence at 0 h)", "setting": "[1]; [4]", "value": 1.17}, {"measurement": "AsPC-1 viability (ratio)", "setting": "[1]; [5]", "value": 0.29, "unit": "ratio"}, {"measurement": "AsPC-1 viability mean (ratio)", "setting": "[1]; [5]", "value": 0.47, "unit": "ratio"}, {"measurement": "Raw data (confluence at 72 h/confluence at 0 h)", "setting": "[1]; [5]", "value": 1.19}, {"measurement": "AsPC-1 viability (ratio)", "setting": "[1]; [6]", "value": 1.02, "unit": "ratio"}, {"measurement": "AsPC-1 viability mean (ratio)", "setting": "[1]; [6]", "value": 0.58, "unit": "ratio"}, {"measurement": "Raw data (confluence at 72 h/confluence at 0 h)", "setting": "[1]; [6]", "value": 4.1}, {"measurement": "AsPC-1 viability (ratio)", "setting": "[1]; [7]", "value": 0.97, "unit": "ratio"}, {"measurement": "AsPC-1 viability mean (ratio)", "setting": "[1]; [7]", "value": 0.53, "unit": "ratio"}, {"measurement": "Raw data (confluence at 72 h/confluence at 0 h)", "setting": "[1]; [7]", "value": 3.9}, {"measurement": "AsPC-1 viability (ratio)", "setting": "[1]; [8]", "value": 0.94, "unit": "ratio"}, {"measurement": "AsPC-1 viability mean (ratio)", "setting": "[1]; [8]", "value": 0.35, "unit": "ratio"}, {"measurement": "Raw data (confluence at 72 h/confluence at 0 h)", "setting": "[1]; [8]", "value": 3.77}, {"measurement": "AsPC-1 viability (ratio)", "setting": "[1]; [9]", "value": 0.8, "unit": "ratio"}, {"measurement": "AsPC-1 viability mean (ratio)", "setting": "[1]; [9]", "value": 0.35, "unit": "ratio"}, {"measurement": "Raw data (confluence at 72 h/confluence at 0 h)", "setting": "[1]; [9]", "value": 3.2}, {"measurement": "AsPC-1 viability (ratio)", "setting": "[1]; [10]", "value": 0.41, "unit": "ratio"}, {"measurement": "AsPC-1 viability mean (ratio)", "setting": "[1]; [10]", "value": 0.34, "unit": "ratio"}, {"measurement": "Raw data (confluence at 72 h/confluence at 0 h)", "setting": "[1]; [10]", "value": 1.63}, {"measurement": "AsPC-1 viability (ratio)", "setting": "[1]; [11]", "value": 0.33, "unit": "ratio"}, {"measurement": "AsPC-1 viability mean (ratio)", "setting": "[1]; [11]", "value": 0.47, "unit": "ratio"}, {"measurement": "Raw data (confluence at 72 h/confluence at 0 h)", "setting": "[1]; [11]", "value": 1.34}, {"measurement": "AsPC-1 viability (ratio)", "setting": "[1]; [12]", "value": 0.29, "unit": "ratio"}, {"measurement": "AsPC-1 viability mean (ratio)", "setting": "[1]; [12]", "value": 0.35, "unit": "ratio"}, {"measurement": "Raw data (confluence at 72 h/confluence at 0 h)", "setting": "[1]; [12]", "value": 1.18}, {"measurement": "AsPC-1 viability (ratio)", "setting": "[1]; [13]", "value": 0.25, "unit": "ratio"}, {"measurement": "AsPC-1 viability mean (ratio)", "setting": "[1]; [13]", "value": 0.34, "unit": "ratio"}, {"measurement": "Raw data (confluence at 72 h/confluence at 0 h)", "setting": "[1]; [13]", "value": 1}, {"measurement": "EC50", "setting": "[1]; ASPC1, 72 h, AsPC1, Experiment ATRi (ATR inhibitor alone), single replicates R1-R3", "value": 107, "unit": "nM"}, {"measurement": "EC50", "setting": "[1]; ASPC1, 72 h, read-out: EC50 (cell growth), ATR inhibitor as single agent", "value": 128, "unit": "nM"}, {"measurement": "EC50", "setting": "[1]; ASPC1, 72 h, read-out: EC50 mean [nM], AsPC1, Experiment ATRi (ATR inhibitor alone), mean of replicates", "value": 128, "unit": "nM"}, {"measurement": "EC50", "setting": "[1]; ASPC1, 72 h, read-out: pEC50, AsPC1 (converted), Experiment ATRi (ATR inhibitor alone), single replicates R1-R3", "value": 107, "unit": "nM"}, {"measurement": "EC50", "setting": "[1]; ASPC1, read-out: EC50 mean [nM], AsPC1, Experiment ATRi (ATR inhibitor alone), mean of replicates", "value": 128, "unit": "nM"}, {"measurement": "Ratio", "setting": "[1]; GEM 0 nM, ATRi 3 nM", "value": "0.90 and 0.92 and 1.01 and 0.83 and 1.02 and 0.89"}, {"measurement": "Ratio", "setting": "[1]; GEM 0 nM, ATRi 10 nM", "value": "1.01 and 1.02 and 1.00 and 0.91 and 0.97 and 0.98"}, {"measurement": "Ratio", "setting": "[1]; GEM 0 nM, ATRi 30 nM", "value": "0.95 and 0.94 and 0.89"}, {"measurement": "Ratio", "setting": "[1]; GEM 0 nM, ATRi 100 nM", "value": "0.63 and 0.73 and 0.80"}, {"measurement": "Ratio", "setting": "[1]; GEM 0 nM, ATRi 300 nM", "value": "0.44 and 0.38 and 0.41"}, {"measurement": "Ratio", "setting": "[1]; GEM 0 nM, ATRi 1000 nM", "value": "0.37 and 0.31 and 0.33"}, {"measurement": "Ratio", "setting": "[1]; GEM 0 nM, ATRi 3000 nM", "value": "0.33 and 0.28 and 0.29"}, {"measurement": "Ratio", "setting": "[1]; GEM 0 nM, ATRi 10000 nM", "value": "0.27 and 0.29 and 0.25"}, {"measurement": "Ratio", "setting": "[1]; GEM 1 nM + ATRi 3 nM", "value": "0.98 and 0.92 and 0.96"}, {"measurement": "Ratio", "setting": "[1]; GEM 1 nM + ATRi 10 nM", "value": "1.01 and 0.95 and 0.97"}, {"measurement": "Ratio", "setting": "[1]; GEM 1 nM + ATRi 30 nM", "value": "0.89 and 0.91 and 0.87"}, {"measurement": "Ratio", "setting": "[1]; GEM 3 nM + ATRi 3 nM", "value": "0.98 and 0.93"}, {"measurement": "Ratio", "setting": "[1]; GEM 3 nM + ATRi 10 nM", "value": "0.94 and 0.89 and 0.91"}, {"measurement": "Ratio", "setting": "[1]; GEM 3 nM + ATRi 30 nM", "value": "0.95 and 0.82 and 0.85"}, {"measurement": "Ratio", "setting": "[1]; GEM 10 nM + ATRi 3 nM", "value": "0.87 and 0.86"}, {"measurement": "Ratio", "setting": "[1]; GEM 10 nM + ATRi 10 nM", "value": "0.79 and 0.67 and 0.68"}, {"measurement": "Ratio", "setting": "[1]; GEM 10 nM + ATRi 30 nM", "value": "0.59 and 0.46 and 0.49"}, {"measurement": "Ratio", "setting": "[1]; GEM 30 nM + ATRi 3 nM", "value": "0.66 and 0.55 and 0.53"}, {"measurement": "Ratio", "setting": "[1]; GEM 30 nM + ATRi 10 nM", "value": "0.51 and 0.39 and 0.41"}, {"measurement": "Ratio", "setting": "[1]; GEM 30 nM + ATRi 30 nM", "value": "0.55 and 0.40 and 0.39"}, {"measurement": "Ratio", "setting": "[1]; GEM 100 nM + ATRi 3 nM", "value": "0.52 and 0.40 and 0.41"}, {"measurement": "Ratio", "setting": "[1]; GEM 100 nM + ATRi 10 nM", "value": "0.49 and 0.37 and 0.39"}, {"measurement": "Ratio", "setting": "[1]; GEM 100 nM + ATRi 30 nM", "value": "0.48 and 0.38 and 0.37"}, {"measurement": "Ratio", "setting": "[1]; GEM 300 nM + ATRi 3 nM", "value": "0.49 and 0.39 and 0.38"}, {"measurement": "Ratio", "setting": "[1]; GEM 300 nM + ATRi 10 nM", "value": "0.47 and 0.37"}, {"measurement": "Ratio", "setting": "[1]; GEM 300 nM + ATRi 30 nM", "value": "0.46 and 0.35 and 0.36"}, {"measurement": "Ratio", "setting": "[1]; GEM 1000 nM + ATRi 3 nM", "value": "0.49 and 0.39"}, {"measurement": "Ratio", "setting": "[1]; GEM 1000 nM + ATRi 10 nM", "value": "0.44 and 0.38 and 0.36"}, {"measurement": "Ratio", "setting": "[1]; GEM 1000 nM + ATRi 30 nM", "value": "0.43 and 0.35"}, {"measurement": "Ratio", "setting": "[1]; GEM 3000 nM + ATRi 3 nM", "value": "0.43 and 0.38 and 0.37"}, {"measurement": "Ratio", "setting": "[1]; GEM 3000 nM + ATRi 10 nM", "value": "0.43 and 0.35 and 0.34"}, {"measurement": "Ratio", "setting": "[1]; GEM 3000 nM + ATRi 30 nM", "value": "0.41 and 0.34"}, {"measurement": "EC50", "setting": "[2]; PANC-1, 72 h, read-out: EC50 mean [nM], PANC-1, experiment ATRi (ATR inhibitor alone)", "value": 7880, "unit": "nM"}, {"measurement": "EC50", "setting": "[2]; PANC-1, read-out: EC50 mean [nM], PANC-1, experiment ATRi (ATR inhibitor alone)", "value": 7880, "unit": "nM"}, {"measurement": "EC50", "setting": "[2]; PANC-1, read-out: EC50 mean [nM], PANC-1, experiment GEM+ATRi_dose1", "value": 4.13, "unit": "nM"}, {"measurement": "EC50", "setting": "[2]; PANC-1, read-out: EC50 mean [nM], PANC-1, experiment GEM+ATRi_dose2", "value": 8.99, "unit": "nM"}, {"measurement": "EC50", "setting": "[2]; PANC-1, read-out: EC50 mean [nM], PANC-1, experiment GEM+ATRi_dose3", "value": 6.69, "unit": "nM"}, {"measurement": "Curve bottom", "setting": "[2]; experiment ATRi (ATR inhibitor alone)", "value": "1.03 and 0.99 and 0.93"}, {"measurement": "Curve top", "setting": "[2]; experiment GEM+ATRi_dose1", "value": "0.48 and 0.43 and 0.49"}, {"measurement": "Curve top", "setting": "[2]; experiment GEM+ATRi_dose2", "value": "0.47 and 0.43 and 0.52"}, {"measurement": "Curve bottom", "setting": "[2]; experiment GEM+ATRi_dose3", "value": "0.95 and 0.86 and 1.00"}, {"measurement": "Curve top", "setting": "[2]; experiment GEM+ATRi_dose3", "value": "0.47 and 0.45 and 0.50"}]}]}
